Consider 15 compounds from PubChem BioAssay AID248 (DTP/NCI, 2004).

Where “and” joins values, the source holds several entries; their conditions need not be identical. Equal entries are not always repeated. Toxic doses and inconclusive results are not listed.

This assay relates to L1210 leukemia ip in BDF1 mice, survival T/C. The assay can be described thus: NCI In Vivo Anticancer Drug Screen. Data for tumor model L1210 Leukemia (intraperitoneal) in B6D2F1 (BDF1) mice. Conditions: endpoint: mean survival time, higher = longer survival. In a few lines: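 Transplantable tumor model; survival measured in treated vs vehicle control mice. Value = treated/control.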

[1] abbreviates: dose: 100.0 mg/kg/injection, schedule: Q04DX003 (ip), vehicle: Klucel (hydroxypropylcellulose) (HPC).
Setting [2] is: dose: 200.0 mg/kg/injection, schedule: Q04DX003 (ip), vehicle: Klucel (hydroxypropylcellulose) (HPC).
[3] abbreviates: dose: 400.0 mg/kg/injection, schedule: Q04DX003 (ip), vehicle: Klucel (hydroxypropylcellulose) (HPC).
Where [4] appears, read: dose: 100.0 mg/kg/injection, schedule: Q01DX001 (ip), vehicle: carboxymethylcellulose (CMC).
The mark [5] stands for this setting: dose: 100.0 mg/kg/injection, schedule: Q01DX001 (ip), vehicle: saline.
Setting [6] is: dose: 200.0 mg/kg/injection, schedule: Q01DX001 (ip), vehicle: saline.
[7] abbreviates: dose: 400.0 mg/kg/injection, schedule: Q01DX001 (ip), vehicle: saline.
[8] abbreviates: dose: 100.0 mg/kg/injection, schedule: Q04DX002 (ip), vehicle: saline.
The mark [9] stands for this setting: dose: 200.0 mg/kg/injection, schedule: Q04DX002 (ip), vehicle: saline.

For the compound `COc1ccc(OC)c(C(=O)CCCCCCCCC(=O)c2cc(OC)ccc2OC)c1`, the T/C runs as follows: under setting [1], 104 % of control; under setting [2], 104 % of control; under setting [3], 90 % of control.
Consider `CC1(C)N=C(N)N=C(N)N1c1cccc(C(=O)CCl)c1`, for which the T/C was 95 % of control (dose: 25.0 mg/kg/injection, schedule: Q01DX001 (ip), vehicle: saline with Tween-80); 103 % of control (dose: 50.0 mg/kg/injection, schedule: Q01DX001 (ip), vehicle: saline with Tween-80); 101 % of control (dose: 100.0 mg/kg/injection, schedule: Q01DX001 (ip), vehicle: saline with Tween-80).
With `O=C1NC(=O)C(=Cc2ccc(N(CCCl)CCCl)cc2)C(=O)N1`, the T/C is 102 % of control (dose: 100.0 mg/kg/injection, schedule: Q01DX Z (ip), vehicle: methylcellulose (MC)) and 121 % of control (dose: 200.0 mg/kg/injection, schedule: Q01DX Z (ip), vehicle: methylcellulose (MC)).
As to `CCCCN(CC)C(=S)[S-].CCCCN(CC)C(=S)[S-].[Zn]`, the T/C is 100 % of control (dose: 2.5 mg/kg/injection, schedule: Q01DX009 (ip), vehicle: saline); 95 % of control (dose: 5.0 mg/kg/injection, schedule: Q01DX009 (ip), vehicle: saline); 98 % of control (dose: 10.0 mg/kg/injection, schedule: Q01DX001 (ip), vehicle: saline); 95 % of control (dose: 10.0 mg/kg/injection, schedule: Q01DX009 (ip), vehicle: saline); 105 % of control (dose: 10.0 mg/kg/injection, schedule: Q04DX003 (ip), vehicle: saline); 89 % of control (dose: 20.0 mg/kg/injection, schedule: Q01DX001 (ip), vehicle: saline). In addition, the T/C runs as follows: (dose: 20.0 mg/kg/injection, schedule: Q04DX003 (ip), vehicle: saline) 103 % of control; (dose: 40.0 mg/kg/injection, schedule: Q01DX001 (ip), vehicle: saline) 91 % of control.
Take `CCCCCCCC(CC(=O)O)OC(=O)CC(CCCCCCC)OC1OC(C)C(O)C(O)C1OC1OC(C)C(O)C(O)C1O` (centres undefined): the T/C runs as follows: (dose: 100.0 mg/kg/injection, schedule: Q04DX002 (ip), vehicle: Klucel (hydroxypropylcellulose) (HPC)) 102 % of control; (dose: 200.0 mg/kg/injection, schedule: Q04DX002 (ip), vehicle: Klucel (hydroxypropylcellulose) (HPC)) 102 % of control.
On to `Cc1cc(N)c(C)c(C)c1O`, for which the T/C is, setting by setting: (dose: 12.5 mg/kg/injection, schedule: Q04DX003 (ip), vehicle: saline with Tween-80) 94 % of control; (dose: 25.0 mg/kg/injection, schedule: Q04DX003 (ip), vehicle: saline with Tween-80) 94 % of control; (dose: 50.0 mg/kg/injection, schedule: Q04DX003 (ip), vehicle: saline with Tween-80) 94 % of control; (dose: 100.0 mg/kg/injection, schedule: Q04DX003 (ip), vehicle: saline with Tween-80) 101 % of control.
Turning to `CCN=C(NCC)Nc1ccc(NC(=O)c2ccc(C(=O)Nc3ccc(NC(=NCC)NCC)cc3)cc2)cc1`, the T/C is 93 % of control (dose: 1.87 mg/kg/injection, schedule: Q01DX Z (ip), vehicle: water); 97 % of control (dose: 3.75 mg/kg/injection, schedule: Q01DX Z (ip), vehicle: water); 109 % of control (dose: 7.5 mg/kg/injection, schedule: Q01DX Z (ip), vehicle: water); 156 % of control (dose: 8.0 mg/kg/injection, schedule: Q01DX009 (ip), vehicle: carboxymethylcellulose (CMC)); 167 % of control (dose: 16.0 mg/kg/injection, schedule: Q01DX009 (ip), vehicle: carboxymethylcellulose (CMC)); 103 % of control (dose: 20.0 mg/kg/injection, schedule: Q01DX001 (ip), vehicle: carboxymethylcellulose (CMC)). Further, the T/C was 103 % of control (dose: 21.0 mg/kg/injection, schedule: Q01DX001 (ip), vehicle: other); 105 % of control (dose: 31.0 mg/kg/injection, schedule: Q01DX001 (ip), vehicle: other); 190 % of control (dose: 33.0 mg/kg/injection, schedule: Q01DX009 (ip), vehicle: other); 104 % of control (dose: 40.0 mg/kg/injection, schedule: Q01DX001 (ip), vehicle: carboxymethylcellulose (CMC)); 116 % of control (dose: 47.0 mg/kg/injection, schedule: Q01DX001 (ip), vehicle: other); 181 % of control (dose: 50.0 mg/kg/injection, schedule: Q01DX009 (ip), vehicle: other). The T/C (dose: 70.0 mg/kg/injection, schedule: Q01DX001 (ip), vehicle: other) is 114 % of control; the T/C (dose: 75.0 mg/kg/injection, schedule: Q01DX001 (ip), vehicle: other) is 118 % of control; the T/C (dose: 75.0 mg/kg/injection, schedule: Q01DX009 (ip), vehicle: other) was 107 % of control; the T/C (dose: 80.0 mg/kg/injection, schedule: Q01DX001 (ip), vehicle: carboxymethylcellulose (CMC)) was 119 % of control; the T/C under setting [4] was 121 % of control; the T/C (dose: 106.0 mg/kg/injection, schedule: Q01DX001 (ip), vehicle: other) is 114 % of control. In addition, the T/C is, setting by setting: (dose: 150.0 mg/kg/injection, schedule: Q01DX001 (ip), vehicle: other) 153 % of control; (dose: 160.0 mg/kg/injection, schedule: Q01DX001 (ip), vehicle: carboxymethylcellulose (CMC)) 167 % of control and 196 % of control; (dose: 160.0 mg/kg/injection, schedule: Q01DX001 (ip), vehicle: other) 112 % of control; (dose: 240.0 mg/kg/injection, schedule: Q01DX001 (ip), vehicle: other) 227 % of control; (dose: 300.0 mg/kg/injection, schedule: Q01DX001 (ip), vehicle: other) 212 % of control.
As for `CCOc1nc2ccccc2c2cc3ccccc3cc12`, the T/C is 103 % of control under setting [5], 109 % of control under setting [6] and 111 % of control under setting [7].
Turning to `Cn1c(CC(O)(C(F)(F)F)C(F)(F)F)ccc1CC(O)(C(F)(F)F)C(F)(F)F`, the T/C reads like this: (dose: 100.0 mg/kg/injection, schedule: Q01DX001 (ip), vehicle: gum acacia) 107 % of control; (dose: 200.0 mg/kg/injection, schedule: Q01DX001 (ip), vehicle: gum acacia) 103 % of control; (dose: 400.0 mg/kg/injection, schedule: Q01DX001 (ip), vehicle: gum acacia) 98 % of control.
Regarding `NC(=O)C1(Nc2ccc(-c3ccc(NC4(C(N)=O)CCCC4)cc3)cc2)CCCC1`, the T/C is 95 % of control (dose: 50.0 mg/kg/injection, schedule: Q01DX001 (ip), vehicle: carboxymethylcellulose (CMC)); 90 % of control under setting [4]; 93 % of control (dose: 200.0 mg/kg/injection, schedule: Q01DX001 (ip), vehicle: carboxymethylcellulose (CMC)).
In the case of `CC1(C)N=C(N)N=C(N)N1c1cccc(C(=O)Nc2ccc(S(=O)(=O)F)cc2)c1`, the T/C is, setting by setting: (dose: 0.8 mg/kg/injection, schedule: Q01DX009 (ip), vehicle: saline) 98 % of control; (dose: 4.0 mg/kg/injection, schedule: Q01DX009 (ip), vehicle: saline) 101 % of control; (dose: 20.0 mg/kg/injection, schedule: Q01DX009 (ip), vehicle: saline) 98 % of control.
With `O=C1NCCN1c1ccccn1`, the T/C was 100 % of control (dose: 100.0 mg/kg/injection, schedule: Q04DX003 (ip), vehicle: saline) and 97 % of control (dose: 200.0 mg/kg/injection, schedule: Q04DX003 (ip), vehicle: saline).
`Nc1nc2ncc(NCc3ccc(C(=O)NC(CCC(=O)O)C(=O)O)cc3)nc2c(=O)[nH]1` (centres undefined): the T/C reads like this: under setting [5], 92 % of control; (dose: 100.0 mg/kg/injection, schedule: Q01DX009 (ip), vehicle: saline) 103 % of control; under setting [8], 96 % of control and 100 % of control; under setting [6], 91 % of control; (dose: 200.0 mg/kg/injection, schedule: Q01DX009 (ip), vehicle: saline) 100 % of control; under setting [9], 100 % of control and 102 % of control. For the same compound, the T/C is, setting by setting: under setting [7], 100 % of control; (dose: 400.0 mg/kg/injection, schedule: Q01DX009 (ip), vehicle: saline) 96 % of control; (dose: 400.0 mg/kg/injection, schedule: Q04DX002 (ip), vehicle: saline) 100 % of control and 105 % of control.
`CCCC(NC(=O)CN)C(=O)O` (centres undefined): the T/C was 96 % of control (dose: 50.0 mg/kg/injection, schedule: Q04DX002 (ip), vehicle: saline); 101 % of control under setting [8]; 96 % of control under setting [9].
On to `CC(C)N(C(=O)Nc1cc([N+](=O)[O-])ccc1F)c1ccccc1`, for which the T/C was 96 % of control under setting [1], 100 % of control under setting [2] and 96 % of control under setting [3].
